Source: the supplement of paper PMC10307832

compound: N#CC1(c2ccc(NC(=O)c3cccnc3NCc3ccncc3)cc2)CCCC1 [Apatinib]; test: relative viability (nuclei count vs DMSO), 5 days (fraction); higher = more cells survive; details: 8 µM
Outline: (§1)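 After an overnight hold at 37 °C, lung cancer cell lines in 1536-well plates were pinned with five library-drug doses (not always all listed), each √10 from the next, on vehicle-anchored plates. The cells stayed 5 days without fresh medium, then a one-step fix, permeabilisation and Hoechst stain preceded 4× imaging and MetaXpress nuclear counts. A plate passed only with control CV under 25% and at least one doubling. Viability is the median, over plates, of treated-well nuclei relative to vehicle-well nuclei.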

Cell Line	relative viability
HCC-44	0.922
HCC-78	0.858
HCC-366	0.988
HCC-827	1.02
HOP-62	0.922
IA-LM	0.535
LC-2-ad	0.819
LCLC-97TM1	0.662
LCLC-103H	0.942
LK-2	0.634
LOU-NH91	0.898
LU99A	0.83
LXF-289	0.951
NCI-H441	0.743
NCI-H522	0.928
NCI-H1623	0.593
NCI-H1648	0.498
NCI-H2342	0.941
SW 900	0.825

compound: CN(C)C(=N)NC(=N)N [Metformin]; test: as above; details: 10 µM
Outline: as §1

Cell Line	relative viability
A549	0.896
A-427	1.05
ABC-1	0.847
BEN	1.26
CAL-12T	1.02
COR-L23	0.979
COR-L 105	1.02
Calu-6	0.899
ChaGo-K-1	0.951
EBC-1	1.18
EKVX	0.756
EMC-BAC-2	0.944
EPLC-272H	0.9
H3255	0.839
HARA	1.12
HCC-44	0.938

Cell Line	relative viability
HCC-78	0.857
HCC-366	0.926
HOP-62	0.856
IA-LM	0.982
LCLC-97TM1	0.725
LCLC-103H	0.848
LK-2	1.22
LOU-NH91	0.998
LU99A	0.946
LXF-289	0.872
NCI-H522	1.24
NCI-H1623	0.985
NCI-H1648	0.937
NCI-H2342	0.665
SW 900	1.08

same assay, conditions: 31.62 µM

Cell Line	relative viability
201T	1.08
A549	0.976
A-427	1.02
ABC-1	1.2
BEN	1.4
CAL-12T	1.19
COR-L23	1.06
COR-L 105	1.04
Calu-6	0.961
ChaGo-K-1	1.11
EBC-1	1.19
EKVX	0.95
EMC-BAC-2	0.99
EPLC-272H	1.16
H3255	1.09
HARA	1.26
HCC-15	1.08
HCC-44	0.997

Cell Line	relative viability
HCC-78	1.03
HCC-366	1.06
HCC-827	0.988
HOP-62	1.02
IA-LM	1.16
LC-2-ad	1.01
LCLC-97TM1	0.978
LCLC-103H	1.01
LK-2	1.28
LOU-NH91	0.865
LU99A	0.894
LXF-289	0.927
NCI-H441	0.761
NCI-H522	1.09
NCI-H1623	0.982
NCI-H1648	1.11
NCI-H2342	1.03
SW 900	1.15

same assay, conditions: 100 µM

Cell Line	relative viability
201T	1.06
A549	0.923
A-427	0.985
ABC-1	0.965
BEN	1.29
CAL-12T	0.938
COR-L23	0.974
COR-L 105	1.16
Calu-6	0.953
ChaGo-K-1	1.05
EBC-1	1.07
EKVX	1.07
EMC-BAC-2	0.788
EPLC-272H	0.923
H3255	0.967
HARA	1.13
HCC-15	1
HCC-44	1.02

Cell Line	relative viability
HCC-78	1.27
HCC-366	1.02
HCC-827	0.993
HOP-62	1.02
IA-LM	1.15
LC-2-ad	0.943
LCLC-97TM1	0.988
LCLC-103H	1.07
LK-2	1.22
LOU-NH91	0.973
LU99A	0.785
LXF-289	0.95
NCI-H441	0.985
NCI-H522	1.05
NCI-H1623	1.08
NCI-H1648	1.28
NCI-H2342	1.04
SW 900	0.779

same assay, conditions: 316.23 µM

Cell Line	relative viability
201T	0.934
A549	0.849
A-427	1.01
ABC-1	0.948
BEN	1.17
CAL-12T	1.02
COR-L23	0.977
COR-L 105	0.994
Calu-6	0.931
ChaGo-K-1	0.896
EBC-1	0.918
EKVX	0.922
EMC-BAC-2	0.94
EPLC-272H	0.935
H3255	0.909
HARA	1.06
HCC-15	0.926
HCC-44	0.909

Cell Line	relative viability
HCC-78	0.968
HCC-366	0.964
HCC-827	0.967
HOP-62	0.917
IA-LM	1.07
LC-2-ad	0.8
LCLC-97TM1	0.843
LCLC-103H	1.01
LK-2	1.07
LOU-NH91	0.997
LU99A	0.792
LXF-289	0.946
NCI-H441	0.667
NCI-H522	0.942
NCI-H1623	0.909
NCI-H1648	1.08
NCI-H2342	0.935
SW 900	0.933

same assay, conditions: 1000 µM

Cell Line	relative viability
201T	1.01
A549	0.996
A-427	1.05
